According to PMC11124822, “Discovery and Anticancer Screening of Novel Oxindole-Based Derivative Bearing Pyridyl Group as Potent and Selective Dual FLT3/CDK2 Kinase Inhibitor” (Pharmaceuticals, 2024):

Tested on: OVCAR-3
Experiment: NCI-60 antiproliferative screen (SRB)
Type: cell-based, human
Conditions: Homo sapiens; 10 µM single dose, 48 h; OVCAR-3 (Ovarian); read-out: Growth inhibition (%)

Row | SMILES | inhibition at 10 µM [%]
1 | O=C1Nc2ccccc2C1=Cc1ccc(OCc2ccccn2)cc1 (mixture of isomers) [Compound 5e, (E/Z)-3-[4-(Pyridin-2-ylmethoxy]benzylidene) indolin-2-one] | 18.2

Tested on: OVCAR-8
Experiment: NCI-60 antiproliferative screen (SRB)
Type: cell-based, human
Conditions: Homo sapiens; 10 µM single dose, 48 h; OVCAR-8 (Ovarian); read-out: Growth inhibition (%)

Row | SMILES | inhibition at 10 µM [%]
2 | O=C1Nc2ccccc2C1=Cc1ccc(OCc2ccccn2)cc1 (mixture of isomers) [Compound 5e, (E/Z)-3-[4-(Pyridin-2-ylmethoxy]benzylidene) indolin-2-one] | 29.7

Tested on: HCT-116
Experiment: NCI-60 antiproliferative screen (SRB)
Type: cell-based, human
Conditions: Homo sapiens; 10 µM single dose, 48 h; HCT-116 (Colon); read-out: Growth inhibition (%)

Row | SMILES | inhibition at 10 µM [%]
3 | O=C1Nc2ccccc2C1=Cc1ccc(OCc2ccccn2)cc1 (mixture of isomers) [Compound 5e, (E/Z)-3-[4-(Pyridin-2-ylmethoxy]benzylidene) indolin-2-one] | 41.1

Tested on: MDA-MB-468
Experiment: NCI-60 antiproliferative screen (SRB)
Type: cell-based, human
Conditions: Homo sapiens; 10 µM single dose, 48 h; MDA-MB-468 (Breast); read-out: Growth inhibition (%)

Row | SMILES | inhibition at 10 µM [%]
4 | O=C1Nc2ccccc2C1=Cc1ccc(OCc2ccccn2)cc1 (mixture of isomers) [Compound 5e, (E/Z)-3-[4-(Pyridin-2-ylmethoxy]benzylidene) indolin-2-one] | 61.7

Tested on: OVCAR-5
Experiment: NCI-60 antiproliferative screen (SRB)
Type: cell-based, human
Conditions: Homo sapiens; 10 µM single dose, 48 h; OVCAR-5 (Ovarian); read-out: Growth inhibition (%)

Row | SMILES | inhibition at 10 µM [%]
5 | O=C1Nc2ccccc2C1=Cc1ccc(OCc2ccccn2)cc1 (mixture of isomers) [Compound 5e, (E/Z)-3-[4-(Pyridin-2-ylmethoxy]benzylidene) indolin-2-one] | 5.53

Tested on: U251
Experiment: NCI-60 antiproliferative screen (SRB)
Type: cell-based, human
Conditions: Homo sapiens, U-251; 10 µM single dose, 48 h; U251 (CNS); read-out: Growth inhibition (%)

Row | SMILES | inhibition at 10 µM [%]
6 | O=C1Nc2ccccc2C1=Cc1ccc(OCc2ccccn2)cc1 (mixture of isomers) [Compound 5e, (E/Z)-3-[4-(Pyridin-2-ylmethoxy]benzylidene) indolin-2-one] | 46.5

Tested on: OVCAR-4
Experiment: NCI-60 antiproliferative screen (SRB)
Conditions: Homo sapiens, OVCAR-4, 48 h, read-out: Growth inhibition (%)

Row | SMILES | inhibition at 10 µM [%]
7 | O=C1Nc2ccccc2C1=Cc1ccc(OCc2ccccn2)cc1 (mixture of isomers) [Compound 5e, (E/Z)-3-[4-(Pyridin-2-ylmethoxy]benzylidene) indolin-2-one] | 30.8

Tested on: RXF 393
Experiment: NCI-60 antiproliferative screen (SRB)
Type: cell-based, human
Conditions: Homo sapiens; 10 µM single dose, 48 h; RXF 393 (Renal); read-out: Growth inhibition (%)

Row | SMILES | inhibition at 10 µM [%]
8 | O=C1Nc2ccccc2C1=Cc1ccc(OCc2ccccn2)cc1 (mixture of isomers) [Compound 5e, (E/Z)-3-[4-(Pyridin-2-ylmethoxy]benzylidene) indolin-2-one] | 44.8

Tested on: KM12
Experiment: NCI-60 antiproliferative screen (SRB)
Type: cell-based, human
Conditions: Homo sapiens; 10 µM single dose, 48 h; KM12 (Colon); read-out: Growth inhibition (%)

Row | SMILES | inhibition at 10 µM [%]
9 | O=C1Nc2ccccc2C1=Cc1ccc(OCc2ccccn2)cc1 (mixture of isomers) [Compound 5e, (E/Z)-3-[4-(Pyridin-2-ylmethoxy]benzylidene) indolin-2-one] | 61.3

Tested on: A498
Experiment: NCI-60 antiproliferative screen (SRB)
Type: cell-based, human
Conditions: Homo sapiens; 10 µM single dose, 48 h; A498 (Renal); read-out: Growth inhibition (%)

Row | SMILES | inhibition at 10 µM [%]
10 | O=C1Nc2ccccc2C1=Cc1ccc(OCc2ccccn2)cc1 (mixture of isomers) [Compound 5e, (E/Z)-3-[4-(Pyridin-2-ylmethoxy]benzylidene) indolin-2-one] | 16.4

Tested on: CAKI-1
Experiment: NCI-60 antiproliferative screen (SRB)
Type: cell-based, human
Conditions: Homo sapiens; 10 µM single dose, 48 h; CAKI-1 (Renal); read-out: Growth inhibition (%)

Row | SMILES | inhibition at 10 µM [%]
11 | O=C1Nc2ccccc2C1=Cc1ccc(OCc2ccccn2)cc1 (mixture of isomers) [Compound 5e, (E/Z)-3-[4-(Pyridin-2-ylmethoxy]benzylidene) indolin-2-one] | 40.8

Tested on: SK-MEL-2
Experiment: NCI-60 antiproliferative screen (SRB)
Type: cell-based, human
Conditions: Homo sapiens; 10 µM single dose, 48 h; SK-MEL-2 (Melanoma); read-out: Growth inhibition (%)

Row | SMILES | inhibition at 10 µM [%]
12 | O=C1Nc2ccccc2C1=Cc1ccc(OCc2ccccn2)cc1 (mixture of isomers) [Compound 5e, (E/Z)-3-[4-(Pyridin-2-ylmethoxy]benzylidene) indolin-2-one] | -12.2

Tested on: MCF7
Experiment: NCI-60 antiproliferative screen (SRB)
Type: cell-based, human
Conditions: Homo sapiens; 10 µM single dose, 48 h; MCF7 (Breast); read-out: Growth inhibition (%)

Row | SMILES | inhibition at 10 µM [%]
13 | O=C1Nc2ccccc2C1=Cc1ccc(OCc2ccccn2)cc1 (mixture of isomers) [Compound 5e, (E/Z)-3-[4-(Pyridin-2-ylmethoxy]benzylidene) indolin-2-one] | 50.8

Tested on: UO-31
Experiment: NCI-60 antiproliferative screen (SRB)
Type: cell-based, human
Conditions: Homo sapiens; 10 µM single dose, 48 h; UO-31 (Renal); read-out: Growth inhibition (%)

Row | SMILES | inhibition at 10 µM [%]
14 | O=C1Nc2ccccc2C1=Cc1ccc(OCc2ccccn2)cc1 (mixture of isomers) [Compound 5e, (E/Z)-3-[4-(Pyridin-2-ylmethoxy]benzylidene) indolin-2-one] | 61.2

Tested on: HCC-2998
Experiment: NCI-60 antiproliferative screen (SRB)
Type: cell-based, human
Conditions: Homo sapiens; 10 µM single dose, 48 h; HCC-2998 (Colon); read-out: Growth inhibition (%)

Row | SMILES | inhibition at 10 µM [%]
15 | O=C1Nc2ccccc2C1=Cc1ccc(OCc2ccccn2)cc1 (mixture of isomers) [Compound 5e, (E/Z)-3-[4-(Pyridin-2-ylmethoxy]benzylidene) indolin-2-one] | 1.6

Tested on: MALME-3M
Experiment: NCI-60 antiproliferative screen (SRB)
Type: cell-based, human
Conditions: Homo sapiens; 10 µM single dose, 48 h; MALME-3M (Melanoma); read-out: Growth inhibition (%)

Row | SMILES | inhibition at 10 µM [%]
16 | O=C1Nc2ccccc2C1=Cc1ccc(OCc2ccccn2)cc1 (mixture of isomers) [Compound 5e, (E/Z)-3-[4-(Pyridin-2-ylmethoxy]benzylidene) indolin-2-one] | 25.4

Tested on: RPMI-8226
Experiment: NCI-60 antiproliferative screen (SRB)
Type: cell-based, human
Conditions: Homo sapiens; 10 µM single dose, 48 h; RPMI-8226 (Leukemia); read-out: Growth inhibition (%)

Row | SMILES | inhibition at 10 µM [%]
17 | O=C1Nc2ccccc2C1=Cc1ccc(OCc2ccccn2)cc1 (mixture of isomers) [Compound 5e, (E/Z)-3-[4-(Pyridin-2-ylmethoxy]benzylidene) indolin-2-one] | 64

Tested on: MOLT-4
Experiment: NCI-60 antiproliferative screen (SRB)
Type: cell-based
Conditions: Homo sapiens; 10 µM single dose, 48 h; MOLT-4 (Leukemia); read-out: Growth inhibition (%)

Row | SMILES | inhibition at 10 µM [%]
18 | O=C1Nc2ccccc2C1=Cc1ccc(OCc2ccccn2)cc1 (mixture of isomers) [Compound 5e, (E/Z)-3-[4-(Pyridin-2-ylmethoxy]benzylidene) indolin-2-one] | 62.5

Tested on: SF-295
Experiment: NCI-60 antiproliferative screen (SRB)
Type: cell-based, human
Conditions: Homo sapiens; 10 µM single dose, 48 h; SF-295 (CNS); read-out: Growth inhibition (%)

Row | SMILES | inhibition at 10 µM [%]
19 | O=C1Nc2ccccc2C1=Cc1ccc(OCc2ccccn2)cc1 (mixture of isomers) [Compound 5e, (E/Z)-3-[4-(Pyridin-2-ylmethoxy]benzylidene) indolin-2-one] | 27

Tested on: PC-3
Experiment: NCI-60 antiproliferative screen (SRB)
Type: cell-based, human
Conditions: Homo sapiens; 10 µM single dose, 48 h; PC-3 (Prostate); read-out: Growth inhibition (%)

Row | SMILES | inhibition at 10 µM [%]
20 | O=C1Nc2ccccc2C1=Cc1ccc(OCc2ccccn2)cc1 (mixture of isomers) [Compound 5e, (E/Z)-3-[4-(Pyridin-2-ylmethoxy]benzylidene) indolin-2-one] | 44.3

Tested on: M14
Experiment: NCI-60 antiproliferative screen (SRB)
Type: cell-based, human
Conditions: Homo sapiens; 10 µM single dose, 48 h; M14 (Melanoma); read-out: Growth inhibition (%)

Row | SMILES | inhibition at 10 µM [%]
21 | O=C1Nc2ccccc2C1=Cc1ccc(OCc2ccccn2)cc1 (mixture of isomers) [Compound 5e, (E/Z)-3-[4-(Pyridin-2-ylmethoxy]benzylidene) indolin-2-one] | 8.3

Tested on: NCI/ADR-RES
Experiment: NCI-60 antiproliferative screen (SRB)
Type: cell-based, human
Conditions: Homo sapiens; 10 µM single dose, 48 h; NCI/ADR-RES (Ovarian); read-out: Growth inhibition (%)

Row | SMILES | inhibition at 10 µM [%]
22 | O=C1Nc2ccccc2C1=Cc1ccc(OCc2ccccn2)cc1 (mixture of isomers) [Compound 5e, (E/Z)-3-[4-(Pyridin-2-ylmethoxy]benzylidene) indolin-2-one] | 46.7

Tested on: DU-145
Experiment: NCI-60 antiproliferative screen (SRB)
Type: cell-based, human
Conditions: Homo sapiens; 10 µM single dose, 48 h; DU-145 (Prostate); read-out: Growth inhibition (%)

Row | SMILES | inhibition at 10 µM [%]
23 | O=C1Nc2ccccc2C1=Cc1ccc(OCc2ccccn2)cc1 (mixture of isomers) [Compound 5e, (E/Z)-3-[4-(Pyridin-2-ylmethoxy]benzylidene) indolin-2-one] | 20.3

Tested on: HOP-62
Experiment: NCI-60 antiproliferative screen (SRB)
Type: cell-based, human
Conditions: Homo sapiens; 10 µM single dose, 48 h; HOP-62 (NSCLC); read-out: Growth inhibition (%)

Row | SMILES | inhibition at 10 µM [%]
24 | O=C1Nc2ccccc2C1=Cc1ccc(OCc2ccccn2)cc1 (mixture of isomers) [Compound 5e, (E/Z)-3-[4-(Pyridin-2-ylmethoxy]benzylidene) indolin-2-one] | 25.6

Tested on: SR
Experiment: NCI-60 antiproliferative screen (SRB)
Conditions: Homo sapiens, 48 h, read-out: Growth inhibition (%)
Protocol: Anticancer activity was tested against 60 cancer cell lines (NCI-60) after 48h treatments with a single dosage of 10 μM of compounds by using sulforhodamine B assay [39] on the traditional 96-well platform. […] The human cancer cell lines of the NCI-60 panel are grown in RPMI 1640 medium supplemented with 5% FBS (fetal bovine serum) and 2 mM L-glutamine. […] For further analysis of promising compounds, five dose screens were performed against the NCI-60 panel. Drug treatments are performed in 5 doses using 10-fold or ½ log dose dilutions.

Row | SMILES | inhibition at 10 µM [%]
25 | O=C1Nc2ccccc2C1=Cc1ccc(OCc2ccccn2)cc1 (mixture of isomers) [Compound 5e, (E/Z)-3-[4-(Pyridin-2-ylmethoxy]benzylidene) indolin-2-one] | 57.7

Tested on: SF-539
Experiment: NCI-60 antiproliferative screen (SRB)
Type: cell-based, human
Conditions: Homo sapiens; 10 µM single dose, 48 h; SF-539 (CNS); read-out: Growth inhibition (%)

Row | SMILES | inhibition at 10 µM [%]
26 | O=C1Nc2ccccc2C1=Cc1ccc(OCc2ccccn2)cc1 (mixture of isomers) [Compound 5e, (E/Z)-3-[4-(Pyridin-2-ylmethoxy]benzylidene) indolin-2-one] | 35.3

Tested on: UACC-257
Experiment: NCI-60 antiproliferative screen (SRB)
Type: cell-based, human
Conditions: Homo sapiens; 10 µM single dose, 48 h; UACC-257 (Melanoma); read-out: Growth inhibition (%)

Row | SMILES | inhibition at 10 µM [%]
27 | O=C1Nc2ccccc2C1=Cc1ccc(OCc2ccccn2)cc1 (mixture of isomers) [Compound 5e, (E/Z)-3-[4-(Pyridin-2-ylmethoxy]benzylidene) indolin-2-one] | 12.6

Tested on: SK-MEL-28
Experiment: NCI-60 antiproliferative screen (SRB)
Type: cell-based, human
Conditions: Homo sapiens; 10 µM single dose, 48 h; SK-MEL-28 (Melanoma); read-out: Growth inhibition (%)

Row | SMILES | inhibition at 10 µM [%]
28 | O=C1Nc2ccccc2C1=Cc1ccc(OCc2ccccn2)cc1 (mixture of isomers) [Compound 5e, (E/Z)-3-[4-(Pyridin-2-ylmethoxy]benzylidene) indolin-2-one] | -0.76
